IC50 data for 31 compounds are collected here from US8680113B2, “BMI-1 protein expression modulators” (PTC Therapeutics, Inc., priority 2008, dated 2014).

The term IC50 denotes the midpoint of a concentration-inhibition curve. A lower IC50 goes with greater potency in that assay.

Where only a bound is given, the exact number is not on record here.

This assay relates to Bmi-1. Briefly: Sandwich ELISA Assay (Bmi-1 ELISA in HT-1080 cells). Format: cell-based, human. The procedure: Cell Seeding and Compound Treatment (Day 1):
HT-1080 cells were seeded at 8000 cells/well (50 uL) in 96-well tissue culture plates. After the cells become adherent (3-4 hours), 2× diluted stocks of compounds in 50 uL DMEM containing 1% DMSO (final DMSO concentration was 0.5%) were added and the plates were incubated at 37° C. under 5% CO2 for 40-48 hours
ELISA Plate First Antibody Preparation (Day 2):
The First Antibody (Millipore Mouse, monoclonal to mouse Bmi-1, clone F6, catalog #05-637) diluted to 2 ug/mL in PBS was added (100 uL) to each well of a Nunc MaxiSorp 96-well ELISA plate. The plate was covered with a plate seal and allowed to stand overnight.
Cell Lysate Preparation (Day 3):
Fresh 1× Lysis buffer was prepared on the day of the assay as follows: 1 mM EDTA, 150 mM NaCl, 0.5% Triton-X 100, 10 mM NaF, 20 mM B-Glycerophosphate, 1 mM DTT (in PBS, pH 7.2-7.4) and 1×HALT protease inhibitor cocktail (Pierce #78410).
1× Lysis Buffer (40 uL) was added to each well and the plate was shaken for 5-10 minutes on an orbital shaker to allow cell lysis, then Diluent (1% BSA in PBS in 0.5% NP40) (100 uL) was added to each well.
The Bmi-1 standard curve was prepared in Diluent at the following concentrations of protein: 8000, 4000, 2000, 1000, 500, 250, 125, 0 pg/mL The Bmi-1 Recombinant Protein Standard (Novus Biologicals PCGF4 Recombinant Protein (P01), catalog #H00000648-P01) used in the standard curve was stored at −80° C., and on first thaw, diluted to 10 ug/uL in Blocking Buffer (1% BSA in PBS; BSA: Fisher Scientific Catalog #1600-100) before being aliquoted and refrozen at −80° C. Aliquots can be kept at 4° C. and reused after first thaw, but only for 1-2 weeks. The Bmi-1 Recombinant Protein Standard contains a GST-fusion tag and thus will show up on western blots around 70 Kda.
The prepared ELISA plate was washed 3× with Wash Buffer (0.05% Tween-20 in PBS). The final wash was removed from the plate and the plate was blotted dry on paper towels. Blocking Buffer (300 uL) (1% BSA in PBS) was added per well. The plate was covered with a plate seal and incubated at room temperature for 1 hour. The blocked plate was washed 3× with Wash Buffer, the final wash was removed and the plate was blotted dry on paper towels. The previously prepared samples and standards were added (at 100 uL/well) and the plate was covered with a plate seal and incubated at 4° C. overnight.
The prepared ELISA plate was removed from 4° C., incubated at room temperature for 30 minutes, then washed and blotted dry as previously described for Day 3. The Second Antibody (Cell Signaling Rabbit anti-Bmi-1, Cat#2830) diluted to 1:600 in Blocking Buffer was added (100 uL) to each well, except as needed for background control wells. The plate was covered with a plate seal and incubated for 1.5 hrs at room temperature.
The ELISA plate was washed and blotted dry as previously described. The Third Antibody (Cell Signaling HRP conjugated anti-rabbit IgG (CellSignaling, Cat#:7074) diluted to 1:300 in Blocking Buffer was added (100 uL) to each well, except as needed for background control wells. The plate was incubated for 1 hr at room temperature.
The plate was washed and blotted dry as previously described, then prepared TMB substrate (TMB substrate kit, Pierce catalog #34021) (prepared by mixing kit reagents 1:1) (100 uL) was added per well. The plate was incubated for 20-30 minutes at room temperature in the dark, then Stop Solution (2 M sulfuric acid in water) (50 uL) was added per well. The plates were read at OD450 (experimental) and OD570 (reference).
On the technique in general: In an ELISA, binding on a coated surface is turned into a signal by an enzyme label.
`COc1cc(F)c(Nc2nc(-c3c(C)nc4ccccn34)cs2)c(F)c1` [Cpd 57, N-(2,6-difluoro-4-methoxyphenyl)-4-(2-methylimidazo[1,2-a]pyridin-3-yl)-1,3-thiazol-2-amine]: the half-maximal inhibitory concentration (IC50) is less than 500 nM.
Compound `Cc1nc2ccc(Cl)cn2c1-c1csc(Nc2ccc(N(C)C)cc2)n1` [Cpd 58, N′-[4-(6-chloro-2-methylimidazo[1,2-a]pyridin-3-yl)-1,3-thiazol-2-yl]-N,N-dimethylbenzene-1,4-diamine] had a half-inhibitory concentration (IC50) of less than 500 nM.
Compound `COc1ccc(Nc2nc(-c3c(C)nc4ccc(Cl)cn34)cs2)cc1` [Cpd 59, 4-(6-chloro-2-methylimidazo[1,2-a]pyridin-3-yl)-N-(4-methoxyphenyl)-1,3-thiazol-2-amine] registered an IC50 of less than 500 nM.
In turn, `Cc1nc2ccc(Cl)cn2c1-c1csc(Nc2ccc(Cl)cc2)n1` [Cpd 60, 4-(6-chloro-2-methylimidazo[1,2-a]pyridin-3-yl)-N-(4-chlorophenyl)-1,3-thiazol-2-amine] registered an IC50 of less than 500 nM.
Under `Cc1nc2ccc(Cl)cn2c1-c1csc(Nc2ccc(Br)cc2)n1` [Cpd 61, N-(4-bromophenyl)-4-(6-chloro-2-methylimidazo[1,2-a]pyridin-3-yl)-1,3-thiazol-2-amine] stands less than 500 nM; under `CC(=O)c1ccc(Nc2nc(-c3c(C)nc4ccc(Cl)cn34)cs2)cc1` [Cpd 62, 1-(4-{[4-(6-chloro-2-methylimidazo[1,2-a]pyridin-3-yl)-1,3-thiazol-2-yl]amino}phenyl)ethanone], less than 500 nM; under `Cc1ccn2c(-c3csc(Nc4ccc5c(c4)OCO5)n3)c(C)nc2c1` [Cpd 63, N-(1,3-benzodioxol-5-yl)-4-(2,7-dimethylimidazo[1,2-a]pyridin-3-yl)-1,3-thiazol-2-amine], less than 500 nM.
On to `Cc1ccn2c(-c3csc(Nc4ccc(N(C)C)cc4)n3)c(C)nc2c1` [Cpd 64, N′-[4-(2,7-dimethylimidazo[1,2-a]pyridin-3-yl)-1,3-thiazol-2-yl]-N,N-dimethylbenzene-1,4-diamine], for which the IC50 was less than 500 nM.
In the case of `Cc1ccn2c(-c3csc(Nc4ccc(Cl)cc4)n3)c(C)nc2c1` [Cpd 65, N-(4-chlorophenyl)-4-(2,7-dimethylimidazo[1,2-a]pyridin-3-yl)-1,3-thiazol-2-amine], the IC50 is less than 500 nM.
To `COc1ccc(Nc2nc(-c3c(C)nc4cc(C)ccn34)cs2)cc1F` [Cpd 66, 4-(2,7-dimethylimidazo[1,2-a]pyridin-3-yl)-N-(3-fluoro-4-methoxyphenyl)-1,3-thiazol-2-amine] belongs less than 500 nM.
Regarding `COc1ccc(Nc2nc(-c3c(C)nc4cc(C)ccn34)cs2)cc1Cl` [Cpd 67, N-(3-chloro-4-methoxyphenyl)-4-(2,7-dimethylimidazo[1,2-a]pyridin-3-yl)-1,3-thiazol-2-amine], the IC50 was less than 500 nM.
`Cc1ccn2c(-c3csc(Nc4ccc(Br)cc4)n3)c(C)nc2c1` [Cpd 68, N-(4-bromophenyl)-4-(2,7-dimethylimidazo[1,2-a]pyridin-3-yl)-1,3-thiazol-2-amine] returned an IC50 of less than 500 nM.
Under `Cc1ccn2c(-c3csc(Nc4ccc(I)cc4)n3)c(C)nc2c1` [Cpd 69, 4-(2,7-dimethylimidazo[1,2-a]pyridin-3-yl)-N-(4-iodophenyl)-1,3-thiazol-2-amine] stands less than 500 nM; under `Cc1ccc2nc(C)c(-c3csc(Nc4ccc(N(C)C)cc4)n3)n2c1` [Cpd 70, N′-[4-(2,6-dimethylimidazo[1,2-a]pyridin-3-yl)-1,3-thiazol-2-yl]-N,N-dimethylbenzene-1,4-diamine], less than 500 nM; under `COc1ccc(Nc2nc(-c3c(C)nc4ccc(C)cn34)cs2)cc1` [Cpd 71, 4-(2,6-dimethylimidazo[1,2-a]pyridin-3-yl)-N-(4-methoxyphenyl)-1,3-thiazol-2-amine], less than 500 nM.
On to `Cc1ccc2nc(C)c(-c3csc(Nc4ccc5c(c4)OCO5)n3)n2c1` [Cpd 72, N-(1,3-benzodioxol-5-yl)-4-(2,6-dimethylimidazo[1,2-a]pyridin-3-yl)-1,3-thiazol-2-amine], for which the IC50 is less than 500 nM.
In turn, `COc1ccc(Nc2nc(-c3c(C)nc4ccc(C)cn34)cs2)cc1Cl` [Cpd 73, N-(3-chloro-4-methoxyphenyl)-4-(2,6-dimethylimidazo[1,2-a]pyridin-3-yl)-1,3-thiazol-2-amine] gave an IC50 of less than 500 nM.
As for `COCCOc1ccc(Nc2nc(-c3c(C)nc4ccc(C)cn34)cs2)cc1` [Cpd 74, 4-(2,6-dimethylimidazo[1,2-a]pyridin-3-yl)-N-[4-(2-methoxyethoxy)phenyl]-1,3-thiazol-2-amine], the IC50 was less than 500 nM.
For the compound `CCN(CC)c1ccc(Nc2nc(-c3c(C)nc4ccc(C)cn34)cs2)cc1` [Cpd 75, N′-[4-(2,6-dimethylimidazo[1,2-a]pyridin-3-yl)-1,3-thiazol-2-yl]-N,N-diethylbenzene-1,4-diamine], the IC50 was less than 500 nM.
In turn, `Cc1ccc2nc(C)c(-c3csc(Nc4ccc(I)cc4)n3)n2c1` [Cpd 76, 4-(2,6-dimethylimidazo[1,2-a]pyridin-3-yl)-N-(4-iodophenyl)-1,3-thiazol-2-amine] gave an IC50 of less than 500 nM.
The compound `Cc1ccc2nc(C)c(-c3csc(Nc4ccc(Br)cc4)n3)n2c1` [Cpd 77, N-(4-bromophenyl)-4-(2,6-dimethylimidazo[1,2-a]pyridin-3-yl)-1,3-thiazol-2-amine] returned an IC50 of less than 500 nM.
Under `Cc1ccc2nc(C)c(-c3csc(Nc4ccc(Cl)cc4)n3)n2c1` [Cpd 78, N-(4-chlorophenyl)-4-(2,6-dimethylimidazo[1,2-a]pyridin-3-yl)-1,3-thiazol-2-amine] stands less than 500 nM; under `Ic1ccc(Nc2nc(-c3cnc4ccccn34)cs2)cc1` [Cpd 79, 4-(imidazo[1,2-a]pyridin-3-yl)-N-(4-iodophenyl)-1,3-thiazol-2-amine], less than 500 nM; under `Cc1nc2ncccn2c1-c1csc(N(C)c2ccc(Br)cc2)n1` [Cpd 80, N-(4-bromophenyl)-N-methyl-4-(2-methylimidazo[1,2-a]pyrimidin-3-yl)-1,3-thiazol-2-amine], less than 500 nM.
Take `Cc1nc2ccc(Br)cn2c1-c1csc(Nc2ccc(N(C)C)cc2)n1` [Cpd 81, N′-[4-(6-bromo-2-methylimidazo[1,2-a]pyridin-3-yl)-1,3-thiazol-2-yl]-N,N-dimethylbenzene-1,4-diamine]: the IC50 was less than 500 nM.
Compound `Cc1nc2ccc(Br)cn2c1-c1csc(Nc2ccc3c(c2)OCO3)n1` [Cpd 82, N-(1,3-benzodioxol-5-yl)-4-(6-bromo-2-methylimidazo[1,2-a]pyridin-3-yl)-1,3-thiazol-2-amine] displayed an IC50 of less than 500 nM.
To `Ic1ccc(Nc2nc(-c3cnc4ncccn34)cs2)cc1` [Cpd 83, 4-(imidazo[1,2-a]pyrimidin-3-yl)-N-(4-iodophenyl)-1,3-thiazol-2-amine] belongs 500 to 1000 nM; to `COc1ccc(Nc2nc(-c3c(C)nc4ncccn34)cs2)cc1OC` [Cpd 84, N-(3,4-dimethoxyphenyl)-4-(2-methylimidazo[1,2-a]pyrimidin-3-yl)-1,3-thiazol-2-amine], less than 500 nM.
With `Cc1ccc(Nc2nc(-c3c(C)nc4ncccn34)cs2)cc1` [Cpd 85, 4-(2-methylimidazo[1,2-a]pyrimidin-3-yl)-N-(4-methylphenyl)-1,3-thiazol-2-amine], the IC50 was less than 500 nM.
Compound `CCc1ccc(Nc2nc(-c3c(C)nc4ncccn34)cs2)cc1` [Cpd 86, N-(4-ethylphenyl)-4-(2-methylimidazo[1,2-a]pyrimidin-3-yl)-1,3-thiazol-2-amine] came in with an IC50 of less than 500 nM.
Compound `Cc1nc2ncccn2c1-c1csc(Nc2ccc(C(C)C)cc2)n1` [Cpd 87, 4-(2-methylimidazo[1,2-a]pyrimidin-3-yl)-N-[4-(propan-2-yl)phenyl]-1,3-thiazol-2-amine] gave an IC50 of less than 500 nM.
